{
  "source": "PubChem BioAssay AID256",
  "about": "(DTP/NCI, 2004)",
  "test_system": "CD2F1 mice, L1210 leukemia ip, survival T/C",
  "assay": "NCI In Vivo Anticancer Drug Screen. Data for tumor model L1210 Leukemia (intraperitoneal) in CD2F1 (CDF1) mice",
  "conditions": "higher = longer survival",
  "how_it_was_run": "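Implant tumor; dose compound or vehicle; measure endpoint in both groups; report treated divided by control.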",
  "key": {"[1]": {"conditions": "endpoint: mean survival time, dose: 100.0 mg/kg/injection, schedule: Q04DX003 (ip), vehicle: saline with Tween-80"}, "[2]": {"conditions": "endpoint: mean survival time, dose: 200.0 mg/kg/injection, schedule: Q04DX003 (ip), vehicle: saline with Tween-80"}, "[3]": {"conditions": "endpoint: mean survival time, dose: 100.0 mg/kg/injection, schedule: Q04DX002 (ip), vehicle: saline with Tween-80"}, "[4]": {"conditions": "endpoint: mean survival time, dose: 200.0 mg/kg/injection, schedule: Q04DX002 (ip), vehicle: saline with Tween-80"}, "[5]": {"conditions": "endpoint: mean survival time, dose: 400.0 mg/kg/injection, schedule: Q04DX002 (ip), vehicle: saline with Tween-80"}},
  "note": "Inconclusive results and toxic doses are left out.",
  "data": [
    {"smiles": "CCCCCCCCC(=O)OCC1OC(n2cnc3c(N)nc(Cl)nc32)CC1O", "note": "(stereo not given)", "values": [
      {"measurement": "T/C", "setting": "endpoint: median survival time, dose: 40.0 mg/kg/injection, schedule: Q01DX009 (ip), vehicle: saline with Tween-80", "result": "161 % of control"},
      {"measurement": "T/C", "setting": "endpoint: median survival time, dose: 50.0 mg/kg/injection, schedule: Q01DX009 (ip), vehicle: saline with Tween-80", "result": "344 % of control"},
      {"measurement": "T/C", "setting": "endpoint: median survival time, dose: 60.0 mg/kg/injection, schedule: Q01DX009 (ip), vehicle: saline with Tween-80", "result": "177 % of control"},
      {"measurement": "T/C", "setting": "endpoint: median survival time, dose: 80.0 mg/kg/injection, schedule: Q01DX009 (ip), vehicle: saline with Tween-80", "result": "97 % of control"},
      {"measurement": "T/C", "setting": "endpoint: median survival time, dose: 100.0 mg/kg/injection, schedule: Q01DX009 (ip), vehicle: saline with Tween-80", "result": "102 % of control"}
    ]},
    {"smiles": "O=C1c2ccccc2C2c3[nH]c4ccccc4c3CCN12", "note": "(stereo not given)", "values": [
      {"measurement": "T/C", "setting": "endpoint: mean survival time, dose: 100.0 mg/kg/injection, schedule: Q01DX009 (ip), vehicle: saline sonified", "result": "97 % of control"},
      {"measurement": "T/C", "setting": "[1]", "result": "87 % of control"},
      {"measurement": "T/C", "setting": "endpoint: mean survival time, dose: 200.0 mg/kg/injection, schedule: Q01DX009 (ip), vehicle: saline sonified", "result": "96 % of control"},
      {"measurement": "T/C", "setting": "[2]", "result": "95 % of control"},
      {"measurement": "T/C", "setting": "endpoint: mean survival time, dose: 400.0 mg/kg/injection, schedule: Q01DX009 (ip), vehicle: saline sonified", "result": "97 % of control"},
      {"measurement": "T/C", "setting": "endpoint: mean survival time, dose: 400.0 mg/kg/injection, schedule: Q04DX003 (ip), vehicle: saline with Tween-80", "result": "93 % of control"}
    ]},
    {"smiles": "O=C(CC(=O)c1ccccc1)c1ccccc1.O=C(CC(=O)c1ccccc1)c1ccccc1.[Cl][Sn][Cl]", "values": [
      {"measurement": "T/C", "setting": "[1]", "result": "90 % of control"},
      {"measurement": "T/C", "setting": "[2]", "result": "94 % of control"}
    ]},
    {"smiles": "Nc1nc2c(ncn2-c2ccc(OCCNC(=O)Nc3cccc(S(=O)(=O)F)c3)cc2)c(=O)[nH]1", "values": [
      {"measurement": "T/C", "setting": "[3]", "result": "104 % of control"},
      {"measurement": "T/C", "setting": "[4]", "result": "96 % of control"},
      {"measurement": "T/C", "setting": "[5]", "result": "90 % of control"}
    ]},
    {"smiles": "COC(=O)C1C2C=CC(C3CCC23)C1C(=O)OC", "note": "(stereo not given)", "values": [
      {"measurement": "T/C", "setting": "endpoint: mean survival time, dose: 100.0 mg/kg/injection, schedule: Q01DX009 (ip), vehicle: saline with Tween-80", "result": "100 % of control"},
      {"measurement": "T/C", "setting": "endpoint: mean survival time, dose: 200.0 mg/kg/injection, schedule: Q01DX009 (ip), vehicle: saline with Tween-80", "result": "93 % of control"},
      {"measurement": "T/C", "setting": "endpoint: mean survival time, dose: 400.0 mg/kg/injection, schedule: Q01DX009 (ip), vehicle: saline with Tween-80", "result": "91 % of control"}
    ]},
    {"smiles": "COC(=O)c1cccn1C(=O)c1ccc(C)c(OCc2ccccc2)c1[N+](=O)[O-]", "values": [
      {"measurement": "T/C", "setting": "[3]", "result": "86 % of control"},
      {"measurement": "T/C", "setting": "[4]", "result": "93 % of control"},
      {"measurement": "T/C", "setting": "[5]", "result": "93 % of control"}
    ]},
    {"smiles": "O=C(CC(=O)CC(O)(C(F)(F)F)C(F)(F)F)CC(O)(C(F)(F)F)C(F)(F)F", "values": [
      {"measurement": "T/C", "setting": "endpoint: mean survival time, dose: 5.0 mg/kg/injection, schedule: Q04DX003 (ip), vehicle: saline", "result": "100 % of control"},
      {"measurement": "T/C", "setting": "endpoint: mean survival time, dose: 10.0 mg/kg/injection, schedule: Q04DX003 (ip), vehicle: saline", "result": "96 % of control"}
    ]},
    {"smiles": "O=C(O)CC(NC(=O)CP(=O)(O)O)C(=O)O.[NH-]C1CCCCC1[NH-].[Pt+2]", "note": "(stereo not given)", "values": [
      {"measurement": "T/C", "setting": "endpoint: mean survival time, dose: 3.12 mg/kg/injection, schedule: Q01DX009 (ip), vehicle: dextrose", "result": "238 % of control"},
      {"measurement": "T/C", "setting": "endpoint: mean survival time, dose: 6.25 mg/kg/injection, schedule: Q01DX009 (ip), vehicle: dextrose", "result": "274 % of control"},
      {"measurement": "T/C", "setting": "endpoint: mean survival time, dose: 7.9 mg/kg/injection, schedule: Q04DX003 (ip), vehicle: saline", "result": "122 % of control"},
      {"measurement": "T/C", "setting": "endpoint: mean survival time, dose: 8.0 mg/kg/injection, schedule: Q04DX003 (ip), vehicle: dextrose", "result": "231 % of control"},
      {"measurement": "T/C", "setting": "endpoint: mean survival time, dose: 11.9 mg/kg/injection, schedule: Q04DX003 (ip), vehicle: dextrose", "result": "280 % of control"},
      {"measurement": "T/C", "setting": "endpoint: mean survival time, dose: 12.0 mg/kg/injection, schedule: Q04DX003 (ip), vehicle: dextrose", "result": "174 % of control"},
      {"measurement": "T/C", "setting": "endpoint: mean survival time, dose: 12.5 mg/kg/injection, schedule: Q01DX009 (ip), vehicle: dextrose", "result": "92 % of control"},
      {"measurement": "T/C", "setting": "endpoint: mean survival time, dose: 17.89 mg/kg/injection, schedule: Q04DX003 (ip), vehicle: dextrose", "result": "237 % of control"},
      {"measurement": "T/C", "setting": "endpoint: mean survival time, dose: 18.0 mg/kg/injection, schedule: Q04DX003 (ip), vehicle: dextrose", "result": "225 % of control"},
      {"measurement": "T/C", "setting": "endpoint: mean survival time, dose: 26.7 mg/kg/injection, schedule: Q04DX003 (ip), vehicle: dextrose", "result": "184 % of control"},
      {"measurement": "T/C", "setting": "endpoint: mean survival time, dose: 26.7 mg/kg/injection, schedule: Q04DX003 (ip), vehicle: saline", "result": "260 % of control"},
      {"measurement": "T/C", "setting": "endpoint: mean survival time, dose: 40.0 mg/kg/injection, schedule: Q04DX003 (ip), vehicle: dextrose", "result": "265 % of control"},
      {"measurement": "T/C", "setting": "endpoint: mean survival time, dose: 40.0 mg/kg/injection, schedule: Q04DX003 (ip), vehicle: saline", "result": "298 % of control"},
      {"measurement": "T/C", "setting": "endpoint: mean survival time, dose: 60.0 mg/kg/injection, schedule: Q04DX003 (ip), vehicle: dextrose", "result": "194 % of control"},
      {"measurement": "T/C", "setting": "endpoint: mean survival time, dose: 60.0 mg/kg/injection, schedule: Q04DX003 (ip), vehicle: saline", "result": "306 % of control"},
      {"measurement": "T/C", "setting": "endpoint: mean survival time, dose: 90.0 mg/kg/injection, schedule: Q04DX003 (ip), vehicle: dextrose", "result": "169 % of control"},
      {"measurement": "T/C", "setting": "endpoint: median survival time, dose: 2.0 mg/kg/injection, schedule: Q01DX009 (ip), vehicle: dextrose", "result": "209 % of control"},
      {"measurement": "T/C", "setting": "endpoint: median survival time, dose: 4.0 mg/kg/injection, schedule: Q01DX009 (ip), vehicle: dextrose", "result": "262 % of control"},
      {"measurement": "T/C", "setting": "endpoint: median survival time, dose: 9.0 mg/kg/injection, schedule: Q01DX009 (ip), vehicle: dextrose", "result": "177 % of control"},
      {"measurement": "T/C", "setting": "endpoint: median survival time, dose: 10.0 mg/kg/injection, schedule: Q01DX001 (ip), vehicle: dextrose", "result": "182 % of control"},
      {"measurement": "T/C", "setting": "endpoint: median survival time, dose: 15.0 mg/kg/injection, schedule: Q01DX001 (ip), vehicle: other", "result": "201 % of control"},
      {"measurement": "T/C", "setting": "endpoint: median survival time, dose: 17.98 mg/kg/injection, schedule: Q04DX003 (ip), vehicle: dextrose", "result": "208 % of control"},
      {"measurement": "T/C", "setting": "endpoint: median survival time, dose: 20.0 mg/kg/injection, schedule: Q01DX001 (ip), vehicle: dextrose", "result": "206 % of control"},
      {"measurement": "T/C", "setting": "endpoint: median survival time, dose: 27.0 mg/kg/injection, schedule: Q04DX003 (ip), vehicle: dextrose", "result": "220 % of control"},
      {"measurement": "T/C", "setting": "endpoint: median survival time, dose: 30.0 mg/kg/injection, schedule: Q01DX001 (ip), vehicle: other", "result": "681 % of control"},
      {"measurement": "T/C", "setting": "endpoint: median survival time, dose: 40.0 mg/kg/injection, schedule: Q01DX001 (ip), vehicle: dextrose", "result": "188 % of control"}
    ]}
  ]
}
